Assay [1] concerns GCV- or MBV-resistant HCMV variants (ORF-UL97 mutants). Kind of assay: HCMV reporter-based antiviral assays, series of GCV- or MBV-resistant variants. It counts as cell-based, human cytomegalovirus. As for the experimental part:
For the infection experiments, stocks of the following recombinant, reporter protein-expressing viruses (GFP or YFP (i.e., green or yellow fluorescent protein, respectively)) were propagated (in permissive cells), determined in their infectious titers performing the respective reporter assays, stored by aliquots at −80 °C, and used for the assessment of antiviral drug activities: human cytomegalovirus HCMV AD169-GFP (HFFs); murine cytomegalovirus MCMV C3X-GFP (MEFs); guinea pig cytomegalovirus GPCMV v403-GFP (GPEFs); human herpesvirus type 6A HHV-6A U1102-GFP (J-Jhan); herpes simplex virus type 1 HSV-1 166v VP22-GFP (HFFs); varicella zoster virus VZV Oka-GFP (HFFs); Epstein-Barr virus EBV Akata-GFP (Akata-BX1-GFP carrier cells; kindly provided by Lindsey Hutt-Fletcher and Rona Scott, Dept. Microbiol. […]
Due to the fact that the HCMV-encoded protein kinase pUL97 represents a functional and structural ortholog of the host CDKs (vCDK/pUL97), the viral mutants of ORF-UL97 were assessed for sensitivity against CDK7 inhibitors. […] These HCMVs (i.e., UL97 mutants C592G, H520Q (GCV-res.) L397R (MBV-res.) M460I, T409M, H411Y, C480F, F432S, C603W (GCV- and MBV-double res.), and H469V (not determined yet)) were used for comparative analysis in HCMV reporter-based antiviral assays.

Assay [2] deals with HCMV UL97-H469V. More on the design: method as in PMID 31940472; key: R-high, high-level drug resistance; R-int, intermediate-level drug resistance; R-low, low-level drug resistance; S, drug sensitivity. The conditions noted are these: cited from earlier work.
For assay [3], the system named is rKSHV.219-GFP/RFP. Kind of assay: KSHV-GFP/RFP reporter assay in iSLK.219 cells. It counts as cell-based, Kaposi’s sarcoma-associated herpesvirus. The text has this: The virus recombinants VZV Oka-GFP and rKSHV.219-GFP/RFP were used for the infection of HFFs (virus stock VZV Oka-GFP applied as a cell-bound inoculum as described before) or were continuously passaged in iSLK.219 carrier cells, respectively (Figure 1). The conditions of the GFP/RFP-based assays were adapted to both the 96 well (Figure 1A,B) and 12 well formats, and details including the assessment of antiviral reference drugs are given (Figure 1C,D).
The virus recombinants VZV Oka-GFP and rKSHV.219-GFP/RFP were used for the infection of HFFs (VZV) or were continuously passaged in iSLK.219 carrier cells (KSHV), respectively, and cell viability was determined by NRA performed with uninfected HFFs or uninduced iSLK.219 cells, respectively. (A,B) Schematic depiction of the assay systems performed in a 96 well plate format. […] For the VZV-GFP system, virus stock VZV Oka-GFP was applied as a cell-bound infectious inoculum. After a 90 min period of inoculum adsorption to the cell surfaces, antiviral compounds were added to the culture media at serial dilutions (DMSO served as a solvent control for drug treatment of infected cells, while mock-infected cells served as a negative control). For the KSHV-GFP/RFP system, iSLK.219 cell lytic replication of KSHV (RFP reporter signal) was induced by the addition of 0.05 or 0.5 µg/mL doxycycline (dox) to the culture media. Cultivated dox-induced iSLK.219 cells were treated with antiviral compounds added at serial dilutions (DMSO served as a positive infection solvent control, while dox-untreated mock cells served as a negative control). HFFs or iSLK.219 cells were harvested at 4 d p.i. or 1 d after treatment, respectively, fixed by a 10 min incubation with 10% formalin, washed with PBS, and used for quantitation of the GFP or RFP reporter signal by PicoMD counting (ImageXpress® Pico device, Molecular Devices LLC, San Jose, CA, USA), with data evaluation using CellReporterXpress® software (version 2.9.3.1183, Molecular Devices LLC) as described earlier in [63]. (C) The antiviral activity of the reference drugs was determined with the VZV-GFP system in the 96 well format. EC50 values refer to measurements in quadruplicate, and the mean values ± SD of two experimental replicates are given. (D) The antiviral activity of the reference drugs was determined with the KSHV-GFP/RFP system in the 96 well format. EC50 values refer to measurements in triplicate, and the mean values ± SD are given for each of the two depicted experimental replicates.

The structures appear in SMILES notation. Where two headings read alike, the source gives them in different places.

For the compound `Nc1ccn(C[C@@H](CO)OCP(=O)(O)O)c(=O)n1` [CDV, cidofovir], the “drug resistance / sensitivity of the GCV- and MBV-resistant HCMVs” value in assay [1] was “all viruses showed sensitivity”. In addition, the “Reported phenotype UL97-H469V” value in assay [2] was “nd | nd | S”.

With `Nc1nc(O)c2ncn(COC(CO)CO)c2n1` [GCV, ganciclovir], the EC50 was 200 ± 100 nM in assay [3] (Human gammaherpesvirus 8, read-out: KSHV EC50, iSLK.219, 96 well, induced with 0.05 μg/mL dox) and 200 nM in assay [3] (Human gammaherpesvirus 8, read-out: KSHV EC50, iSLK.219, 96 well, induced with 0.5 μg/mL dox).

Source of the values: PMC10892818, “An Antiherpesviral Host-Directed Strategy Based on CDK7 Covalently Binding Drugs: Target-Selective, Picomolar-Dose, Cross-Virus Reactivity” (Pharmaceutics, 2024).
